# Reference: US20080009418A1, “Selective Inhibitors” (Alchemia LTD., priority 2004, published 2008)
# What was measured:
# Settings in all cases: compound at 10 μM
# [1] = target: T1, Human δ-opioid (DOP) (Homo sapiens, UniProt P41143); assay: Radioligand binding, human δ-opioid (DOP) membranes, FlashPlate, [3H]-Bremazocine
# T1 construct: purchased Perkin Elmer Biosignal
# Procedure, shortened: (§1)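 Cloned human receptor membranes were coated onto FlashPlate wells and incubated with radioligand and compound (added from a 0.5 mM DMSO daughter plate) for 1 hour at room temperature in the dark. Scintillation counting gave percent inhibition, with DMSO defining total and reference ligand defining non-specific binding.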
# [2] = target: T2, Human κ-Opioid (KOP) (Homo sapiens, UniProt P41145); assay: Radioligand binding, human κ-opioid (KOP) membranes, filtration, [3H]-Diprenorphine
# T2 construct: purchased Perkin Elmer Biosignal
# T2 sequence (P41145 whole entry): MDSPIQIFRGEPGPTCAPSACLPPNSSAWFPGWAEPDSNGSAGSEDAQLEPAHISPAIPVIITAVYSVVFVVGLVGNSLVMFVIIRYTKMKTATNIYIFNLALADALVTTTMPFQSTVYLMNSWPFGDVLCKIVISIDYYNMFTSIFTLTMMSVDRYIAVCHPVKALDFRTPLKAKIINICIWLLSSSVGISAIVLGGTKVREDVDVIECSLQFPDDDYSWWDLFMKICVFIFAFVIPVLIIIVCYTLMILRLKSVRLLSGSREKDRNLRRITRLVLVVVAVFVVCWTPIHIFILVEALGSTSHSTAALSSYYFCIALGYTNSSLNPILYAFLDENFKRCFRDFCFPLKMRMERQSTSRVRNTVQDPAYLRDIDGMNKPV
# Procedure, shortened: (§2)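 Membranes from cloned human receptors were incubated with compound and radioligand for 1 hour at room temperature. Bound ligand was collected on 0.3% PEI-soaked filters, washed with cold 50 mM Tris-HCl pH 7.4, and counted by scintillation. Percent inhibition was computed against DMSO totals and reference-ligand nonspecific wells.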
# [3] = target: T3, Human Melanocortin (MC3) (Homo sapiens, UniProt P41968); assay: Radioligand binding, human melanocortin MC3 membranes, FlashPlate, [125I]-NDP-αMSH
# T3 construct: purchased Perkin Elmer Biosignal
# T3 sequence (P41968 whole entry): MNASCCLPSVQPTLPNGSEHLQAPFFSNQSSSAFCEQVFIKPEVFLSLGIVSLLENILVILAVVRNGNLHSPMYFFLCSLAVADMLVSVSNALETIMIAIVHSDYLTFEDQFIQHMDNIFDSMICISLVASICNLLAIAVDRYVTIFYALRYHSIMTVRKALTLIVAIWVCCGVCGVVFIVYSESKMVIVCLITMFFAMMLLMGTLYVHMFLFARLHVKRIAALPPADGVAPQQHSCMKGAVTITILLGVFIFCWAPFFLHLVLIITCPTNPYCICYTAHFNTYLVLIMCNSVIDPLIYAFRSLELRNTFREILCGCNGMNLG
# Procedure, shortened: as §1
# [4] = target: T4, Human Melanocortin (MC4) (Homo sapiens, UniProt P32245); assay: Radioligand binding, human melanocortin MC4 membranes, FlashPlate, [125I]-NDP-αMSH
# T4 construct: purchased Perkin Elmer Biosignal
# T4 sequence (P32245 whole entry): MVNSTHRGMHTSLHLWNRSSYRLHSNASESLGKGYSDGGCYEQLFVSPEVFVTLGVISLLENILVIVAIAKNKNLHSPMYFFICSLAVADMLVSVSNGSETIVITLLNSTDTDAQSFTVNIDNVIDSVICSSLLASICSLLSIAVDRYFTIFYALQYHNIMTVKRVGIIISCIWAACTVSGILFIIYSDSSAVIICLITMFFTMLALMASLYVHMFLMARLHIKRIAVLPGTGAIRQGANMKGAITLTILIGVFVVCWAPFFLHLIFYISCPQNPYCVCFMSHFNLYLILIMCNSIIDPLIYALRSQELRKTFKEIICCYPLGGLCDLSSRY
# Procedure, shortened: as §1
# [5] = target: T5, Human melanocortin (MC5) (Homo sapiens, UniProt P33032); assay: Radioligand binding, human melanocortin MC5 membranes, FlashPlate, [125I]-NDP-αMSH
# T5 construct: purchased Perkin Elmer Biosignal
# T5 sequence (P33032 whole entry): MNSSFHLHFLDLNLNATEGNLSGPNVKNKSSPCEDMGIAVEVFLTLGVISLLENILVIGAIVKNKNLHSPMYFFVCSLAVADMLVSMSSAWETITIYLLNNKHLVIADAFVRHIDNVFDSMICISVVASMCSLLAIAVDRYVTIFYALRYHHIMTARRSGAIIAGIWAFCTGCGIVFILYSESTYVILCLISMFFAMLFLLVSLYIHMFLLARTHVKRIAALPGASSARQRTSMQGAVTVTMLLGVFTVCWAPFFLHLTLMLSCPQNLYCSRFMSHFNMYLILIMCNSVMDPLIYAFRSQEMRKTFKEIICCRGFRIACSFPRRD
# Procedure, shortened: as §1
# [6] = target: T6, Human melanin-concentrating hormone (MCH1) (Homo sapiens, UniProt Q99705); assay: Radioligand binding, human melanin-concentrating hormone MCH1 membranes, FlashPlate, [125I]-S36057
# T6 construct: purchased Perkin Elmer Biosignal
# T6 sequence (Q99705 whole entry): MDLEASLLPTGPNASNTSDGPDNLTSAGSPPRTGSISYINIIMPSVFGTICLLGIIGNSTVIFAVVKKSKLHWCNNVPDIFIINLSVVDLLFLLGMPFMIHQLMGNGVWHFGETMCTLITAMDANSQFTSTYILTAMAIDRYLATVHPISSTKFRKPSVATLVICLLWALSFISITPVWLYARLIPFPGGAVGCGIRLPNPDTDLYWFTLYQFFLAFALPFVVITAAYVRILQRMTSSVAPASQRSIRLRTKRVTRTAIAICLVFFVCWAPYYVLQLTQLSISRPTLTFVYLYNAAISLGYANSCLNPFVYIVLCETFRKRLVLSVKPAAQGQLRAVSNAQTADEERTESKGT
# Procedure, shortened: as §1
# [7] = target: T7, Human μ-opioid (MOP) (Homo sapiens, UniProt P35372); assay: Radioligand binding, human μ-opioid (MOP) membranes, FlashPlate, [3H]-Naloxone
# T7 construct: purchased Perkin Elmer Biosignal
# T7 sequence (P35372 whole entry): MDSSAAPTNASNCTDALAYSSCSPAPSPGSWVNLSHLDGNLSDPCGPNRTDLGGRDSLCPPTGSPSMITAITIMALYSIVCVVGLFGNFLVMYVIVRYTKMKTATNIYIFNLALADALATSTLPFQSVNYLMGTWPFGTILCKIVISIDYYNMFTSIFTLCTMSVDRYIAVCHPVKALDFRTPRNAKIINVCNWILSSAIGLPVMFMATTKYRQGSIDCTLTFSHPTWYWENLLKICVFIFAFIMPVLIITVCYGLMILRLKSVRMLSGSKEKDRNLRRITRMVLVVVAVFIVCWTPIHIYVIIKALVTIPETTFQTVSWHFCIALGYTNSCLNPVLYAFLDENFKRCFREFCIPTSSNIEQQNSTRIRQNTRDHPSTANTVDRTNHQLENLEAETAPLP
# Procedure, shortened: as §1
# [8] = target: T8, Human neurokinin (NK1) (Homo sapiens, UniProt P25103); assay: Radioligand binding, human neurokinin NK1 membranes, filtration, [125I]-Substance P
# T8 construct: purchased Perkin Elmer Biosignal
# T8 sequence (P25103 whole entry): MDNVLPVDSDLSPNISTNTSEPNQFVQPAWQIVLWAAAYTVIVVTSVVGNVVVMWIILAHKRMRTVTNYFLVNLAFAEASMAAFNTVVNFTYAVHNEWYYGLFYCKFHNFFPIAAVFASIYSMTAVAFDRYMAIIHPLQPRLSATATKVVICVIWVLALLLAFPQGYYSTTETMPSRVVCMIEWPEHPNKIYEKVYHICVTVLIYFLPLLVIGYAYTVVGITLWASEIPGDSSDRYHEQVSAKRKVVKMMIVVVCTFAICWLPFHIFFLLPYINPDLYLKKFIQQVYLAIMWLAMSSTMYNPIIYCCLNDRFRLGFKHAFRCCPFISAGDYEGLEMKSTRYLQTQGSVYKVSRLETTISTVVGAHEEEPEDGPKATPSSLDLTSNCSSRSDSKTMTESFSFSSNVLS
# Procedure, shortened: as §2
# [9] = target: T9, Human neuropeptide Y (NPY-Y1) (Homo sapiens, UniProt P25929); assay: Radioligand binding, human neuropeptide Y NPY-Y1 membranes, FlashPlate, [125I]-PYY
# T9 construct: purchased Perkin Elmer Biosignal
# T9 sequence (P25929 1-384): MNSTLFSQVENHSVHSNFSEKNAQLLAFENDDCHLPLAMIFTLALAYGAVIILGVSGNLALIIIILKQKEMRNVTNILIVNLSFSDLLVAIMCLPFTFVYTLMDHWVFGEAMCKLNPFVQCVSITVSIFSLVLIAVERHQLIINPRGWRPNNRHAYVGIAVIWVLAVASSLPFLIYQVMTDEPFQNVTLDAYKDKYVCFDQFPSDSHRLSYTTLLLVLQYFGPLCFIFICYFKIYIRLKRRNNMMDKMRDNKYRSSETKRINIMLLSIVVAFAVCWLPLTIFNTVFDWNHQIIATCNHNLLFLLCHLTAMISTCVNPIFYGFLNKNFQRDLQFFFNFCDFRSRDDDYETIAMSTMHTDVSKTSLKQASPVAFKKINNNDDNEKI
# Procedure, shortened: as §1
# [10] = target: T10, Human opioid (ORL1) (Homo sapiens, UniProt P41146); assay: Radioligand binding, human opioid ORL1 membranes, FlashPlate, [125I]-Nociceptin
# T10 construct: purchased Perkin Elmer Biosignal
# T10 sequence (P41146 whole entry): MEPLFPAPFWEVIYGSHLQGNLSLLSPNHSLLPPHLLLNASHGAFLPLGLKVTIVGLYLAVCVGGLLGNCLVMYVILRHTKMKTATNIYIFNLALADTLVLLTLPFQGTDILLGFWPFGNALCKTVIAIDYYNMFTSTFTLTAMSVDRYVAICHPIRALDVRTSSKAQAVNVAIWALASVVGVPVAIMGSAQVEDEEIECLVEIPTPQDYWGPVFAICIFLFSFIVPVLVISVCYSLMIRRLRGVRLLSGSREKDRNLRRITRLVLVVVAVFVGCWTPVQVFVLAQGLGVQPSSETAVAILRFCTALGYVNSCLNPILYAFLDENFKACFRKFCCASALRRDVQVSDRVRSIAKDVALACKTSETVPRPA
# Procedure, shortened: as §1
# [11] = target: T11, Mouse urotensin (mUR2) (Mus musculus, UniProt Q8VIH9); assay: Radioligand binding, mouse urotensin mUR2 membranes, FlashPlate, [125I]-Urotensin II
# T11 construct: purchased Perkin Elmer Biosignal
# T11 sequence (Q8VIH9 1-385): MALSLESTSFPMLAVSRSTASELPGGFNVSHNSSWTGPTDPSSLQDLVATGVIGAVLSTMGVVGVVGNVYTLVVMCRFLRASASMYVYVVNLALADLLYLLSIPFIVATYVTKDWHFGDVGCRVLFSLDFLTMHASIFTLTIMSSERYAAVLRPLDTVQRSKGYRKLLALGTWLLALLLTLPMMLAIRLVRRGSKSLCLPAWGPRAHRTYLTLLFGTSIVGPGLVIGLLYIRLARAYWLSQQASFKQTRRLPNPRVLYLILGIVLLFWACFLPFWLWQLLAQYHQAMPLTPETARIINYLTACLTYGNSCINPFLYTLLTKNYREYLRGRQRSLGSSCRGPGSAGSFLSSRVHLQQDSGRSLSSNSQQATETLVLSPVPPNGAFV
# Procedure, shortened: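 Cloned mouse urotensin (mUR2) receptor membranes from Perkin Elmer Biosignal were immobilized in FlashPlate microplates using a proprietary coating. Each well got 19.5 μl buffer, then 0.5 μl of DMSO, reference ligand, or compound. Adding 5 μl of [125I]-Urotensin II, diluted to 5× final concentration in binding buffer, started binding. Plates were sealed with TopSeal-A and incubated 1 hour at room temperature in the dark. Wells were counted for 30 seconds each on a TopCount after a 60-second delay, and percentage inhibition was calculated.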
# T1 sequence (P41143 whole entry): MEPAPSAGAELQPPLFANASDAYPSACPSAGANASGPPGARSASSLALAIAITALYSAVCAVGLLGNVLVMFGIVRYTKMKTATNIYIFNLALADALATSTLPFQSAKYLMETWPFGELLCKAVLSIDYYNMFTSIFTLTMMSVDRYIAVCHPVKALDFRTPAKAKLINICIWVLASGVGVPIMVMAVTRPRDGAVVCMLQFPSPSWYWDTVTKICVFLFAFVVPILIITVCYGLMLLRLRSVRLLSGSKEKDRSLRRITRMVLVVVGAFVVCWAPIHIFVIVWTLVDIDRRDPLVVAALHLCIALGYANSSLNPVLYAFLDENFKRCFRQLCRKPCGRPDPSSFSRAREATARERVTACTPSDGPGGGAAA
compound,measurement,setting,value
CSC1OC(COCc2cccc(N)c2)C(O)C(OCc2ccccc2)C1NC(=O)Cc1ccccc1 (stereo not shown) [compound 325],"A1: inhibition of radioligand binding, human δ-opioid (DOP)",[1]; [3H]-Bremazocine,− (“−” indicates less than 50% inhibition at 10 μM)
same,"A2: inhibition of radioligand binding, human κ-opioid (KOP)",[2]; [3H]-Diprenorphine,− (“−” indicates less than 50% inhibition at 10 μM)
same,"A3: inhibition of radioligand binding, human melanocortin (MC3)",[3]; [125I]-NDP-αMSH,− (“−” indicates less than 50% inhibition at 10 μM)
same,"A4: inhibition of radioligand binding, human melanocortin (MC4)",[4]; [125I]-NDP-αMSH,− (“−” indicates less than 50% inhibition at 10 μM)
same,"A5: inhibition of radioligand binding, human melanocortin (MC5)","[5]; [125I]-NDP-αMSH, 10 µM",+ (“+” indicates greater than 50% inhibition at 10 μM)
same,"A6: inhibition of radioligand binding, human melanin-concentrating hormone (MCH1)",[6]; [125I]-S36057,− (“−” indicates less than 50% inhibition at 10 μM)
same,"A7: inhibition of radioligand binding, human μ-opioid (MOP)",[7]; [3H]-Naloxone,− (“−” indicates less than 50% inhibition at 10 μM)
same,"A8: inhibition of radioligand binding, human neurokinin (NK1)",[8]; [125I]-Substance P,+ (“+” indicates greater than 50% inhibition at 10 μM)
same,"A9: inhibition of radioligand binding, human neuropeptide Y (NPY-Y1)",[9]; [125I]-PYY,− (“−” indicates less than 50% inhibition at 10 μM)
same,"A10: inhibition of radioligand binding, human opioid (ORL1)",[10]; [125I]-Nociceptin,− (“−” indicates less than 50% inhibition at 10 μM)
same,"A11: inhibition of radioligand binding, mouse urotensin (mUR2)",[11]; [125I]-Urotensin II,− (“−” indicates less than 50% inhibition at 10 μM)
COCC1OC(OCc2ccccc2)C(NC(=O)CCCNC(=N)N)C(OCc2ccc(-c3ccccc3)cc2)C1O (stereo not shown) [compound 187],"A1 radioligand binding, percentage inhibition",[1]; [3H]-Bremazocine,− (“−” indicates less than 50% inhibition at 10 μM)
same,"A2 radioligand binding, percentage inhibition",[2]; [3H]-Diprenorphine,− (“−” indicates less than 50% inhibition at 10 μM)
same,"A3 radioligand binding, percentage inhibition",[3]; [125I]-NDP-αMSH,− (“−” indicates less than 50% inhibition at 10 μM)
same,"A4 radioligand binding, percentage inhibition",[4]; [125I]-NDP-αMSH,+ (“+” indicates greater than 50% inhibition at 10 μM)
same,"A5 radioligand binding, percentage inhibition",[5]; [125I]-NDP-αMSH,+ (“+” indicates greater than 50% inhibition at 10 μM)
same,"A6 radioligand binding, percentage inhibition",[6]; [125I]-S36057,+ (“+” indicates greater than 50% inhibition at 10 μM)
same,"A7 radioligand binding, percentage inhibition",[7]; [3H]-Naloxone,− (“−” indicates less than 50% inhibition at 10 μM)
same,"A8 radioligand binding, percentage inhibition",[8]; [125I]-Substance P,+ (“+” indicates greater than 50% inhibition at 10 μM)
same,"A9 radioligand binding, percentage inhibition",[9]; [125I]-PYY,− (“−” indicates less than 50% inhibition at 10 μM)
same,"A10 radioligand binding, percentage inhibition",[10]; [125I]-Nociceptin,− (“−” indicates less than 50% inhibition at 10 μM)
same,"A11 radioligand binding, percentage inhibition",[11]; [125I]-Urotensin II,− (“−” indicates less than 50% inhibition at 10 μM)
CO[C@H]1[C@H](O)[C@@H](COCc2ccc(Cl)cc2)OC(OCc2ccccc2)[C@@H]1NC(=O)CCCNC(=N)N (stereo partly shown) [compound 93],"A1 radioligand binding, percentage inhibition",[1]; [3H]-Bremazocine,− (“−” indicates less than 50% inhibition at 10 μM)
same,"A2 radioligand binding, percentage inhibition",[2]; [3H]-Diprenorphine,− (“−” indicates less than 50% inhibition at 10 μM)
same,"A3 radioligand binding, percentage inhibition",[3]; [125I]-NDP-αMSH,− (“−” indicates less than 50% inhibition at 10 μM)
same,"A4 radioligand binding, percentage inhibition",[4]; [125I]-NDP-αMSH,− (“−” indicates less than 50% inhibition at 10 μM)
same,"A5 radioligand binding, percentage inhibition",[5]; [125I]-NDP-αMSH,+ (“+” indicates greater than 50% inhibition at 10 μM)
same,"A6 radioligand binding, percentage inhibition",[6]; [125I]-S36057,− (“−” indicates less than 50% inhibition at 10 μM)
same,"A7 radioligand binding, percentage inhibition",[7]; [3H]-Naloxone,+ (“+” indicates greater than 50% inhibition at 10 μM)
same,"A8 radioligand binding, percentage inhibition",[8]; [125I]-Substance P,+ (“+” indicates greater than 50% inhibition at 10 μM)
same,"A9 radioligand binding, percentage inhibition",[9]; [125I]-PYY,− (“−” indicates less than 50% inhibition at 10 μM)
same,"A10 radioligand binding, percentage inhibition",[10]; [125I]-Nociceptin,− (“−” indicates less than 50% inhibition at 10 μM)
same,"A11 radioligand binding, percentage inhibition",[11]; [125I]-Urotensin II,− (“−” indicates less than 50% inhibition at 10 μM)
CO[C@H]1[C@H](O)[C@@H](COCc2ccccc2)OC(OCc2ccc3ccccc3c2)[C@@H]1NC(=O)CCCN (stereo partly shown) [compound 76],A1 radioligand binding inhibition,[1]; human δ-opioid (DOP) membranes,− (“−” indicates less than 50% inhibition at 10 μM)
same,A2 radioligand binding inhibition,[2]; human κ-opioid (KOP) membranes,− (“−” indicates less than 50% inhibition at 10 μM)
same,A3 radioligand binding inhibition,[3]; human melanocortin MC3 membranes,− (“−” indicates less than 50% inhibition at 10 μM)
same,A4 radioligand binding inhibition,[4]; human melanocortin MC4 membranes,− (“−” indicates less than 50% inhibition at 10 μM)
same,A5 radioligand binding inhibition,[5]; human melanocortin MC5 membranes,− (“−” indicates less than 50% inhibition at 10 μM)
same,A6 radioligand binding inhibition,[6]; human MCH1 membranes,− (“−” indicates less than 50% inhibition at 10 μM)
same,A7 radioligand binding inhibition,[7]; human μ-opioid (MOP) membranes,− (“−” indicates less than 50% inhibition at 10 μM)
same,A8 radioligand binding inhibition,[8]; human neurokinin NK1 membranes,+ (“+” indicates greater than 50% inhibition at 10 μM)
same,A9 radioligand binding inhibition,[9]; human NPY-Y1 membranes,− (“−” indicates less than 50% inhibition at 10 μM)
same,A10 radioligand binding inhibition,[10]; human ORL1 membranes,− (“−” indicates less than 50% inhibition at 10 μM)
same,A11 radioligand binding inhibition,[11]; mouse urotensin mUR2 membranes,− (“−” indicates less than 50% inhibition at 10 μM)
N=C(N)NCCC(=O)NC1C(OCc2ccc(-c3ccccc3)cc2)OC(COCc2ccc3ccccc3c2)C(O)C1OCc1ccc2ccccc2c1 (stereo not shown) [compound 411],A1: inhibition of radioligand binding,"[1]; [3H]-Bremazocine, human DOP membranes",− (“−” indicates less than 50% inhibition at 10 μM)
same,A2: inhibition of radioligand binding,"[2]; [3H]-Diprenorphine, human KOP membranes",− (“−” indicates less than 50% inhibition at 10 μM)
same,A3: inhibition of radioligand binding,"[3]; [125I]-NDP-αMSH, human MC3 membranes",+ (“+” indicates greater than 50% inhibition at 10 μM)
same,A4: inhibition of radioligand binding,"[4]; [125I]-NDP-αMSH, human MC4 membranes",+ (“+” indicates greater than 50% inhibition at 10 μM)
same,A5: inhibition of radioligand binding,"[5]; [125I]-NDP-αMSH, human MC5 membranes",+ (“+” indicates greater than 50% inhibition at 10 μM)
same,A6: inhibition of radioligand binding,"[6]; [125I]-S36057, human MCH1 membranes",+ (“+” indicates greater than 50% inhibition at 10 μM)
same,A7: inhibition of radioligand binding,"[7]; [3H]-Naloxone, human MOP membranes",− (“−” indicates less than 50% inhibition at 10 μM)
same,A8: inhibition of radioligand binding,"[8]; [125I]-Substance P, human NK1 membranes",+ (“+” indicates greater than 50% inhibition at 10 μM)
same,A9: inhibition of radioligand binding,"[9]; [125I]-PYY, human NPY-Y1 membranes",− (“−” indicates less than 50% inhibition at 10 μM)
same,A10: inhibition of radioligand binding,"[10]; [125I]-Nociceptin, human ORL1 membranes",+ (“+” indicates greater than 50% inhibition at 10 μM)
same,A11: inhibition of radioligand binding,"[11]; [125I]-Urotensin II, mouse mUR2 membranes",− (“−” indicates less than 50% inhibition at 10 μM)
